Where two headings read alike, the source gives them in different places.
How the values were obtained:
[1] = tested on: wild-type HCT116 colon cancer cells; test: Anti-proliferative IC50 assay (SRB), wild-type HCT116; type: cell-based, human
Text: (§1) The cellular cytotoxicity of compounds of the invention resulting from AKR1C3-dependent metabolism of the compounds can readily be observed in anti-proliferative IC50 testing in isogenic cell lines that have been engineered to over-express human AKR1C3, relative to their wild-type counterparts that have been selected for their comparatively low levels of endogenous AKR1C3 expression (by Western blot analysis). The direct role of AKR1C3 in metabolism and cytotoxicity of the compounds is further supported for selected examples by repeat anti-proliferative experiments in the presence of a potent and selective small molecule inhibitor of AKR1C3, SN34037 (Flanagan et al., Bioorganic & Medicinal Chemistry (2014), 22(3), 967-977).
(§2) Four hundred cells were seeded in a volume of 100 μL in each well of a 96-well plate. The cells were left in a humidified incubator (37° C., 5% CO2) for 2 hours in order to enable attachment to the surface of the wells prior to compound addition. All compounds were prepared as stocks in DMSO and stored at −80° C. Frozen stocks of compounds were thawed immediately prior to addition to cells. Working solutions of each compound were made in α-MEM+5% FBS (v/v) at 3 times the required final concentration for the top well. The final concentration of DMSO in the α-MEM solution was ensured to not exceed 1% of the total volume. 50 μL of the working solution was added to the top wells (in duplicates) and gently mixed. The solubility of some compounds precluded the working solution in α-MEM to be 3 times the desired top well concentration. […] A 3-fold serial dilution was carried out along the plate starting from the top well. The first column of wells on the plate served as blanks (containing α-MEM+FBS) and the second column served as control wells (containing cells with no compound added). Following compound addition, the plates were incubated for 4 hours in a humidified incubator (37° C., 5% CO2).
(§3) Following the 4 hour compound exposure, the 96-well plates were washed three times by aspirating media with an Immuno Washer (Nunc) and each well replaced with 150 μL of α-MEM+5% (v/v) FBS+1% (v/v) P/S. The plates were left in a humidified incubator (37° C., 5% CO2) for 5 days to enable cell growth. The cells in 96-well plates were fixed 5 days after compound exposure by adding 50 μL of a 40% (w/v) trichloroacetic acid (TCA) solution so as to obtain a final TCA concentration of 10% in each well. The plates were left in the refrigerator (4° C.) for 1 hour and subsequently rinsed 3 times in tap water. Any excess water was left to drain and the cells were stained with 50 μL of 0.4% (w/v) sulforhodamine B (SRB). The plates with the SRB stain were left in the dark for 30 minutes. Excess stain was removed from the wells by rinsing the plates 4 times in water containing 1% (v/v) acetic acid. The stain was solubilised by adding 100 μL of 10 mM unbuffered Tris (pH 10.5) to each well and the plates were left in a shaker in a dark environment at room temperature for at least 1 hour. The absorbance values of the wells were determined by an ELx 808 Absorbance Microplate Reader (Bio-Tek Instruments, Winooski, Vt., USA), with the wavelength of the measurement filter set at 490 nm and a reference filter set at 450 nm. The absorbance of the reference filter was subtracted from the measurement filter to obtain a final absorbance of λ490-450 nm. The absorbance data was analysed and IC50 values determined by the KC4 microplate data analysis software (KC4™ V3.4, Bio-Tek).
(§4) Anti-proliferative IC50 assays were repeated as described above including the addition of 3 μM SN34037, a selective and potent small molecule inhibitor of AKR1C3.

[2] = tested on: HCT116 colon cancer cells engineered to over-express AKR1C3; test: Anti-proliferative IC50 assay (SRB), HCT116 over-expressing AKR1C3; type: cell-based, human; conditions: for IC50 Ratio WT:AKR1C3: HCT116-WT vs HCT116-AKR1C3
Text: as §1, §2, §3, §4

[3] = tested on: SNU398 hepatocellular carcinoma cells engineered to over-express AKR1C3; test: Anti-proliferative IC50 assay, SNU398 over-expressing AKR1C3; type: cell-based, human; conditions: for IC50: Homo sapiens
Method: as §2, §3, §4
Materials and methods used are as described for Example 9. […] This is a surprising finding and considerably greater than the approximately 77-fold, 270-fold and 400-fold increase in sensitivity observed for PR-104A, SN33540 and SN34454, respectively. In all cases, this increase in cytotoxicity resulting from expression of AKR1C3 can be substantially reversed by addition of an AKR1C3 inhibitor (SN34037), directly implicating metabolism of the prodrugs by AKR1C3 in the observed increase in cytotoxicity. As an important control, introduction of SN34037 had no anti-proliferative effects in wild-type SNU398 cells treated with compounds of the invention.

[4] = tested on: H460 lung cancer xenografts; test: Tumour growth delay, H460 xenografts; type: in vivo, NIH-III mice; conditions: q4dx3 intraperitoneal; for tolerability of schedule: 237, 178 and 178 μmol/kg
Text: Specific pathogen-free female homozygous nude NIH-III (NIH-Lyst^bg Foxn1^nu Btk^xid) mice were bred by the Vernon Jansen Unit (shared vivarium, University of Auckland). Animals were housed in Techniplast microisolator cages and provided with a standard twelve hour day-night light schedule. Animals received standard rodent diet (Harlan Teklad diet 2018i) and water ad libitum. All animal studies were approved by the University of Auckland Animal Ethics Committee.
Animals weighed 18-25 g at the time of tumour inoculation. Tumours were grown subcutaneously on the right flank of mice by inoculating cells grown in tissue culture (1×10^7 cells in 100 uL serum free α-MEM). Tumour sizes were monitored three times weekly using electronic callipers and treatments were initiated once tumour diameter reached ≥7 mm.
Tumour bearing mice were randomised into the appropriate treatment groups and tumour size and body weight recorded. Test compounds were formulated on the day of the experiment and kept in foil-wrapped tubes out of direct fluorescent light. If recruitment of animals occurred over multiple days, the drug stocks were aliquoted into tubes and frozen once at −80° C. until required. Mice were treated with a single (or q4dx3 or q4dx4 or q4dx6) dose of a compound of the invention by intraperitoneal injection and thereafter tumour size and body weight was monitored every second day. Tumour volume was calculated as […] (l×w×w)/6, where l is the major axis and w is the perpendicular minor axis. Animals were culled when they had reached the appropriate survival endpoint or when body weight loss exceeded 20% of the pre-treatment value.

[5] = Homo sapiens, HCT-116, read-out: HCT116-WT IC50
[6] = read-out: HCT116-WT + AKR1C3 Inhibitor IC50, with 3 μM SN34037
[7] = Homo sapiens, HCT-116, read-out: HCT116-AKR1C3 IC50
[8] = read-out: HCT116-AKR1C3 + AKR1C3 Inhibitor IC50, with 3 μM SN34037
[9] = SNU-398, read-out: SNU398-AKR1C3 +AKR1C3 Inhibitor Anti-proliferative IC50
[10] = SNU-398, read-out: SNU398-AKR1C3 Anti-proliferative IC50

Row | Structure (SMILES) | IC50 [1, 5] | IC50 [1, 6] | IC50 Ratio WT:AKR1C3 [2] | IC50 [2, 7] | IC50 [2, 8] | IC50 [3, 9] | IC50 [3, 10] | tolerability of schedule [4] | anti-tumour efficacy (mean tumour volume) ([4]; SN34454 237, 602 178, 641 178 μmol/kg, FIG. 2) | increase in sensitivity when SNU398 cells express AKR1C3 ([3]; SNU398-WT vs SNU398-AKR1C3)
1 | O=[N+]([O-])c1ccc(N(CCBr)CCBr)c(S(=O)(=O)N2CCN(CC(O)CO)CC2)c1 (centres unmarked) [Compound 566, 3-(4-((2-(bis(2-bromoethyl)amino)-5-nitrophenyl)sulfonyl)piperazin-1-yl)propane-1,2-diol] | 3.34 µM | 3.93 µM | 3340 | 0.001 µM | 1.72 µM | 6.41 µM | 0.011 µM | – | – | –
2 | CN1CCN(S(=O)(=O)c2cc([N+](=O)[O-])ccc2N(CCBr)CCOS(C)(=O)=O)CC1 [Compound 602, 2-((2-bromoethyl)(2-((4-methylpiperazin-1-yl)sulfonyl)-4-nitrophenyl)amino)ethyl methanesulfonate] | 4.26 µM | 4.33 µM | 4260 | 0.001 µM | 1.78 µM | 2.66 µM | 0.003 µM | well-tolerated | – | –
3 | CS(=O)(=O)OCCN(CCBr)c1ccc([N+](=O)[O-])cc1S(=O)(=O)N1CCN(CC(O)CO)CC1 (centres unmarked) [Compound 605, 2-((2-bromoethyl)(2-((4-(2,3-dihydroxypropyl)piperazin-1-yl)sulfonyl)-4-nitrophenyl)amino)ethyl methanesulfonate] | 6.18 µM | 6.9 µM | 687 | 0.009 µM | 3.54 µM | 10.5 µM | 0.028 µM | – | – | –
4 | CN1CCN(S(=O)(=O)c2cc([N+](=O)[O-])ccc2N(CCOS(C)(=O)=O)CCOS(C)(=O)=O)CC1 [Compound 641, ((2-((4-methylpiperazin-1-yl)sulfonyl)-4-nitrophenyl)azanediyl)bis(ethane-2,1-diyl) dimethanesulfonate] | 5.91 µM | 6.4 µM | 2955 | 0.002 µM | 3.11 µM | 5.07 µM | 0.004 µM | well-tolerated | – | –
5 | CS(=O)(=O)OCCN(CCBr)c1c(C(=O)NCCO)cc([N+](=O)[O-])cc1[N+](=O)[O-] [PR-104A, 2-((2-bromoethyl)(2-((2-hydroxyethyl)-carbamoyl)-4,6-dinitrophenyl)amino)ethyl methanesulfonate, reference compound] | 55.8 µM | 70.7 µM | 50 | 1.12 µM | 41.8 µM | 89.9 µM | 1.16 µM | – | – | –
6 | CN1CCN(C(=O)c2cc([N+](=O)[O-])ccc2N(CCBr)CCBr)CC1 [SN34118, reference compound] | 38.2 µM | 29.3 µM | 98 | 0.389 µM | 23.9 µM | – | – | – | – | –
7 | CN1CCN(C(=O)c2cc([N+](=O)[O-])ccc2N(CCBr)CCOS(C)(=O)=O)CC1 [SN34454, reference compound] | – | – | – | – | – | 62.7 µM | 0.15 µM | well-tolerated | anti-tumour efficacy | ~400 fold
